Calls of active or inactive are those of the source. The rule behind the calls is not given here.

Chain of Nuclear receptor coactivator 1 (Homo sapiens) (Q15788 whole entry, looked up): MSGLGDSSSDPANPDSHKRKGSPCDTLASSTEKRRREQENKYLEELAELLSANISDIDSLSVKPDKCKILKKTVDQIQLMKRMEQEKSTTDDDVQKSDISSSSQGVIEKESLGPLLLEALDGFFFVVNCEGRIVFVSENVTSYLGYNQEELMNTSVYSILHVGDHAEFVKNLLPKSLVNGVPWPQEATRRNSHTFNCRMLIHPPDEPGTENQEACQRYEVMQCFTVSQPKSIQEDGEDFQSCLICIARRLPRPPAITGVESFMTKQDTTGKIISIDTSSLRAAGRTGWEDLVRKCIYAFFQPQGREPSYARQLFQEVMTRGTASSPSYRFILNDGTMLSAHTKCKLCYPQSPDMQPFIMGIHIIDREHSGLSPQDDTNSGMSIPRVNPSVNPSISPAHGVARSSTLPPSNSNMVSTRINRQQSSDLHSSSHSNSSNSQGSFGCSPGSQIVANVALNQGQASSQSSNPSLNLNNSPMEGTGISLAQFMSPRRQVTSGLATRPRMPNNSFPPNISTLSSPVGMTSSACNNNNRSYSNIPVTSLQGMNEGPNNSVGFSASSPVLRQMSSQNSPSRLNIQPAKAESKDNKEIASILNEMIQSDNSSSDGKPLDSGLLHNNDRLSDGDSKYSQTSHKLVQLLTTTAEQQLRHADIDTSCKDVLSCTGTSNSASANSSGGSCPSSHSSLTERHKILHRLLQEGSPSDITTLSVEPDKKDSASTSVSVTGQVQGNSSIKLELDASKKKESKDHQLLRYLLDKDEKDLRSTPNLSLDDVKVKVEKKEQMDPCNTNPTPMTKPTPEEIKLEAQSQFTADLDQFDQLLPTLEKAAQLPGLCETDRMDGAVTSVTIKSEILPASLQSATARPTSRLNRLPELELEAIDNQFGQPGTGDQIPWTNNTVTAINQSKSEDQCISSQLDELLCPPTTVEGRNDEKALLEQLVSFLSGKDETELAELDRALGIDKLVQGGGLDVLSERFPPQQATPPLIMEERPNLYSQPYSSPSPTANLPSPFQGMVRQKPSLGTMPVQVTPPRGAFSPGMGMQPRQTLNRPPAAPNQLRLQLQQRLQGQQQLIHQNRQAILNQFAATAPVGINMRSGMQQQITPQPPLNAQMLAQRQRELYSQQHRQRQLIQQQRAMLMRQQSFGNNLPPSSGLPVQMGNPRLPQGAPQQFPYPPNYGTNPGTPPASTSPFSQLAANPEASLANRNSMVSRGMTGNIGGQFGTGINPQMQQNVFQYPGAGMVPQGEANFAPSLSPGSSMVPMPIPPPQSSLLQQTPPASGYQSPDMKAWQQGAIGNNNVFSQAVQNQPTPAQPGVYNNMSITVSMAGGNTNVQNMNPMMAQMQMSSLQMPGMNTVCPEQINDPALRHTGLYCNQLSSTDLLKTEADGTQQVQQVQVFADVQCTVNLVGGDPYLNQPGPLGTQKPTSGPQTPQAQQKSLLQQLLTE

The test concerns the target Nuclear receptor coactivator 1 (Homo sapiens) (UniProt Q15788). Kind of test: inhibition of NCOA1 transcriptional coactivation in cells – cell-based, luciferase reporter, luminescence, dose response (AID 602235).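 Note: cells transfected with pGL4.31 reporter plus pBIND-SRC1 vector; potency is for inhibitors that lower SRC1 reporter luminescence.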 As to conditions: cell-based SRC1 luciferase reporter.
Take `CC(C)n1c(-c2cccnc2)nc2cnccc21`: the IC50 entry is “inactive”.

`CCCCC(=O)Nc1cccn2ncnc12`: the IC50 entry is “inactive”. Take `CN(C)c1ccc(/C=C/c2nc3ccccc3s2)cc1`: the IC50 result is “inactive”. As for `COc1ccc2[nH]c(=O)c(CN(CCN3CCCC3)C(=O)Nc3ccccc3Cl)cc2c1`, the IC50 was > 35.8 µM (inactive). As for `CCCCC(CC)COCCCN=Cc1c(O)[nH]c(=S)[nH]c1=O` (configuration not stated), the IC50 entry was “inactive”. On to `Cc1ccc(N(Cc2cc(=O)[nH]c3ccccc23)C(=O)CCl)c(C)c1`, for which the IC50 was 5.31 µM. The result for `Cc1ccc(S(=O)(=O)NC(CC(C)C)C(=O)NCC(c2ccco2)N2CCCCC2)cc1` (configuration not stated) reads > 35.9 µM (inactive); that for `Fc1cccc(CSc2nnc3ccc(-c4ccncc4)nn23)c1`, > 35.8 µM (inactive); that for `CCOC(=O)CSc1cc(-c2ccccc2)nc2ncnn12`, > 35.9 µM (inactive). Take `CCn1c2ccccc2c2cnc(N=CN(C)C)c(C#N)c21`: the IC50 result is “inactive”. As to `CCOc1cccc(/C=N/NC(=O)c2cc(C3CC3)[nH]n2)c1O`, the IC50 was 8.38 µM. For the compound `COc1cccc(/C=N/NC(=O)CNC(=O)C2COc3ccccc3O2)c1O` (configuration not stated), the IC50 entry was “inactive”. For the compound `COc1cc(OC)c2cc(C(=O)N/N=C/c3cccc(OC)c3O)[nH]c2c1`, the IC50 entry is “inactive”.

For the compound `CCOc1cc(C(N)=O)cc(Br)c1OC`, the IC50 result is “inactive”.

`O=C1c2cccc(OCc3ccc(F)cc3)c2CCN1Cc1ccccc1`: the IC50 was > 35.9 µM (inactive). As to `CCN(CC(=O)Nc1ccc(NC(C)=O)cc1)C(=O)C1(c2ccc(Cl)cc2)CCC1`, the IC50 entry is “inactive”.

For the compound `CC(NC(=O)COC(=O)c1cccs1)c1ccccc1` (configuration not stated), the IC50 was > 35.9 µM (inactive).

Consider `O=C(O)CN1C(=O)/C(=C\c2ccccc2OCc2ccc(Cl)cc2Cl)SC1=S`, for which the IC50 result is “inactive”.

As to `CCCc1cc(C(=O)N(C)CC(=O)Nc2ccc(OCC)c(OCC)c2)sc1C`, the IC50 was > 35.9 µM (inactive).

Take `O=C(CSc1nc(-c2cccs2)cc(C(F)(F)F)n1)Nc1cc(OCC(F)(F)C(F)F)cc([N+](=O)[O-])c1`: the IC50 was > 35.9 µM (inactive).

On to `CCN(Cc1ccncc1)C(=O)CC1C(=O)NCCN1Cc1ccc(F)c(F)c1` (configuration not stated), for which the IC50 entry is “inactive”. As to `O=C(OC(c1ccccc1)c1nccc2ccccc12)c1ccccc1` (configuration not stated), the IC50 was > 11.9 µM (inactive).

With `COC(=O)c1cccc2c1-c1ccccc1/C2=N/O`, the IC50 was 9.71 µM. Consider `COc1ccc(Nc2ncnc3ccc(C)cc23)cc1`, for which the IC50 is 3.97 µM. The result for `CCN1CCN(C(=S)c2ccc(-c3ccccc3)cc2)CC1` reads > 35.9 µM (inactive); that for `Nc1ccn([C@@H]2O[C@H](CO)[C@@H](O)C2O)c(=O)n1` (some centres not stated), “inactive”; that for `C=C1C(=O)[C@@]23C[C@H]4[C@@H]5[C@@]6(C)CCC[C@@]57[C@@H]2[C@@H](O)[C@@H]1C[C@H]3[C@H]7N4C6`, 3.71 µM. Consider `CC1CCN(C(=O)c2scc3c2OCCO3)CC1`, for which the IC50 result is “inactive”.

For `Cc1c(CC(=O)NCCCC(=O)O)c(=O)oc2cc3c(cc12)CCC(C)(C)O3`, the IC50 result is “inactive”. In the case of `O=C(CCC(=O)Nc1ccc(Br)cc1)N/N=C/c1ccccc1O` it was 4.94 µM; in that of `c1cc2c(cn1)cnc1cscc12`, “inactive”. Turning to `CN(c1ccc(C(=O)N2CCN(Cc3ccc4c(c3)OCO4)CC2)cc1)S(=O)(=O)c1ccccc1`, the IC50 was > 35.9 µM (inactive). Consider `COc1ccc(-c2cnc(N)nc2-c2ccc(OC)cc2O)cc1`, for which the IC50 result is “inactive”. `O=C(NC(=S)Nc1ccc(N2CCN(C(=O)c3ccccc3)CC2)cc1)c1cccs1`: the IC50 result was “inactive”. Consider `CN1CCN(c2cccc3c2C(=O)c2ccccc2C3=O)CC1`, for which the IC50 is > 35.9 µM (inactive).

For the compound `COc1ccc(-c2cc(=O)oc3c(C)c(O)c(CN(C)C)cc23)cc1`, the IC50 entry is “inactive”. For the compound `OCCN1CCN(C(=S)c2ccc(-c3ccccc3)cc2)CC1`, the IC50 was > 35.9 µM (inactive).

As to `O=C(CCl)N(c1ccccc1)C1CCS(=O)(=O)C1` (configuration not stated), the 50% inhibitory concentration (IC50) is 2.84 µM. For the compound `O=C(CCl)N1N=C(c2ccco2)CC1c1ccco1` (configuration not stated), the IC50 is 5.7 µM. Regarding `COc1ccc(/C=C2\CC/C(=C\c3ccc(OC)c(OC)c3)C2=O)cc1OC`, the IC50 was > 35.9 µM (inactive). Turning to `c1ccc(-c2csc3ncnc(NCCN4CCOCC4)c23)cc1`, the IC50 result is “inactive”. The result for `CCN(c1ccccc1)S(=O)(=O)c1cc(C(=O)Nc2ccc(Br)cc2)ccc1F` reads > 12 µM (inactive); that for `O=C(N/N=C/c1coc2ccc(Cl)cc2c1=O)c1ccc(O)cc1`, > 35.9 µM (inactive); that for `COc1cc(C(=O)N/N=C(\c2ccccc2)c2ccccn2)cc(OC)c1OC`, > 11.9 µM (inactive).

For `COc1cc(/C=C2\CC(C(C)(C)C)C/C(=C\c3cc(OC)c(OC)c(OC)c3)C2=O)cc(OC)c1OC` (configuration not stated), the IC50 is > 35.9 µM (inactive). In the case of `CCOc1ccccc1-n1c(SCC(=O)Nc2ccccc2C(=O)O)nc2ccccc2c1=O`, the IC50 is > 35.9 µM (inactive). In the case of `CCCS(=O)(=O)c1c(S(=O)(=O)CCC)c2c(C)cccn2c1C(=O)N/N=C/c1cc(O)cc(O)c1`, the IC50 result is “inactive”.

For `CCC(=O)Oc1c(C(=O)CC)cc2c(C)cc(=O)oc2c1C`, the IC50 was > 35.8 µM (inactive). For the compound `c1nc2sc3c(c2c2nnnn12)CCCC3`, the IC50 entry was “inactive”. As to `c1ccc(-c2nnc(-c3ccccn3)nc2NC2CCCCC2)cc1`, the IC50 was 5.22 µM. Consider `Cc1cc(C)nc(SCc2ccc(C(=O)N/N=C/c3cccc(O)c3O)cc2)n1`, for which the IC50 was 5.18 µM. As for `CC[C@@]1(O)C(=O)OCc2c1cc1n(c2=O)Cc2cc3c(NC(=O)CN)cccc3nc2-1`, the IC50 is > 35.9 µM (inactive). On to `COc1ccccc1CNC(=O)C(=O)NCCC1CCCCN1S(=O)(=O)c1ccc(C)cc1` (configuration not stated), for which the IC50 entry was “inactive”. In the case of `C=CCNc1ncnc2ccc(Br)cc12` it was 6.79 µM; in that of `CCN(CC)CCNC(=O)c1ccc(NC(=O)C2CCN(c3ncnc4sc(C)c(C)c34)CC2)cc1`, 5.4 µM; in that of `COc1ccc2c(C#N)c3ccccn3c2c1`, “inactive”.

As for `COc1ccccc1-c1cc2nc(-c3ccccc3)cc(N3CCN(C(=O)c4ccco4)CC3)n2n1`, the IC50 result is “inactive”. In the case of `Cc1ccc2occ(/C=N/NC(=O)c3ccncc3)c(=O)c2c1`, the IC50 entry is “inactive”. For the compound `OCCN(CCO)CC(O)COc1ccc(C23CC4CC(CC(C4)C2)C3)cc1` (configuration not stated), the IC50 was > 35.9 µM (inactive).

Take `CCC(=O)c1ccc(Oc2nc3c(c(=O)n(C)c(=O)n3C)n2CC)cc1`: the IC50 was 7.62 µM. Consider `COc1ccc(Oc2nc3c(c(=O)n(C)c(=O)n3C)n2C)cc1`, for which the IC50 result is “inactive”.

Regarding `COc1cc2c(cc1OC)C(C)N(C(=O)c1cccc([N+](=O)[O-])c1)CC2` (configuration not stated), the IC50 entry is “inactive”. Take `Cc1cccc(C)c1-c1ccc(CN2C(CC(C)C)C(=O)N(Cc3cn(CC4CCCCC4)nn3)CCS2(=O)=O)cc1` (configuration not stated): the IC50 entry was “inactive”. In the case of `Cc1nc2c(-c3ccc(Cl)cc3)c(C)[nH]n2c(=O)c1Cc1ccccc1` it was 9.38 µM; in that of `CCOC(=O)c1c(NC(=O)C(C)N2CCN(C(=O)c3ccco3)CC2)sc2c1CCCC2` (configuration not stated), “inactive”; in that of `O=C1CCC2S/C(=C/Nc3ccc(C(F)(F)F)cc3)C(=O)N12` (configuration not stated), > 35.9 µM (inactive). As for `COc1ccccc1N(C(=O)CCl)c1cn(C(C)=O)c2ccccc12`, the IC50 is > 35.9 µM (inactive).

As for `Cc1cccc(C)c1-n1nnnc1C(c1cccs1)N1CCC2(CC1)C(=O)NCN2c1ccccc1` (configuration not stated), the IC50 entry is “inactive”. On to `CCCCN(CCCC)c1ncnc2nc[nH]c12`, for which the IC50 result was “inactive”. Take `Cc1ccc(N=c2c([N+](=O)[O-])nn(-c3ccc4c(c3)OCCO4)n2O)cc1F`: the IC50 result is “inactive”. On to `CCOC(=O)c1cccc2c1-c1ccccc1/C2=N/O`, for which the half-inhibitory concentration (IC50) was 7.13 µM.

Turning to `Cn1nc(C(F)(F)F)c(C#N)c1N1CCN(c2ccccc2)CC1`, the IC50 is 7.05 µM. The result for `COc1cc2c(cc1OC)C(NC(=O)C(F)(F)F)CNC2=O` (configuration not stated) reads 6.97 µM; that for `CC(=O)C1=C(C)NC2=C(C(=O)CC(C)(C)C2)C1C` (configuration not stated), “inactive”; that for `CCn1ccnc1CN(C)Cc1cn[nH]c1-c1ccc(F)cc1F`, “inactive”. The result for `C=CCOc1ccc(/C=C2\SC(=S)N(CCC(=O)O)C2=O)cc1` reads > 35.9 µM (inactive). In the case of `COc1cc(C(=O)NC(=S)NNC(=O)c2cnccn2)cc(OC)c1OC` it was “inactive”; in that of `O=C(c1ccncc1)N(Cc1cc2ccccc2[nH]c1=O)C1CCCCC1`, “inactive”.

Regarding `CCn1c(Oc2cccc(Br)c2)nc2c1c(=O)n(C)c(=O)n2C`, the IC50 entry was “inactive”. Regarding `O=[N+]([O-])c1ccc2c(c1)-c1ccccc1C2=NO`, the IC50 result was “inactive”. `Cc1c(C(=O)N/N=C/C(C)C)[nH]c2ccc([N+](=O)[O-])cc12`: the IC50 result was “inactive”. The result for `Cc1nc2c(-c3ccc(F)cc3)cnn2c(N)c1-c1ccccc1` reads “inactive”; that for `O=C(CCCc1nc(-c2ccccc2Cl)no1)NC1CCCC1`, “inactive”; that for `CCN(C(=O)c1cccc(S(=O)(=O)N(C)C)c1)C12CC3CC(CC(C3)C1)C2`, > 35.9 µM (inactive). `NS(=O)(=O)c1ccc(Nc2nc(-c3cccnc3)cs2)cc1`: the IC50 was > 35.8 µM (inactive). Turning to `COc1ccc(-n2cnc3c(sc4nccc(N(C)C)c43)c2=O)cc1`, the IC50 entry was “inactive”. Turning to `CNc1cccnc1C=NNC(N)=S`, the IC50 is 3.45 µM. `COc1ccc(-c2ncncc2-c2ccccc2)c(O)c1`: the IC50 result is “inactive”. As for `COc1ccc2c(=O)cc(-c3ccncc3)oc2c1OC`, the IC50 entry is “inactive”. On to `CCc1ccc(/C=C2\SC(=S)N(CCCC(=O)NCCCN3CCOCC3)C2=O)cc1`, for which the IC50 is 6.27 µM. Take `Cc1nc(N2CCC(C(N)=O)CC2)c2c(-c3cccs3)csc2n1`: the IC50 was 8.59 µM.

With `Cc1ccc(OCC(=O)c2cc(C)n(-c3ccccc3)c2C)c([N+](=O)[O-])n1`, the IC50 result is “inactive”.

Usually IC50 stands for the concentration that gives 50% inhibition.

For the origin of these results see PubChem BioAssay AID602235 (The Scripps Research Institute Molecular Screening Center, 2012).
